The record followed here is patent US7452691B2, “Device and method for detecting antibiotic inactivating enzymes” (priority 2005, dated 2008).

Format in all cases: cell-based
The test system of one assay is FOX-1. Put plainly: Indirect reagent disk test, antibiotic inactivation. Particulars: enzyme FOX-1; indirect method.
Another assay addresses OXA-7 (Escherichia coli, UniProt P35695). The description is as above. The conditions noted are these: enzyme OXA-7; indirect method.
The next assay has as its system OXA-4. Described as above. The conditions noted are these: enzyme OXA-4; indirect method.
For the next assay, the system named is OXA-6. The description is as above. Particulars: enzyme OXA-6; indirect method.
The target of the next assay is SHV-1 (Klebsiella pneumoniae, UniProt P0AD64). The description is as above. The conditions noted are these: enzyme SHV-1; indirect method.
Sequence of SHV-1 (P0AD64 22-286): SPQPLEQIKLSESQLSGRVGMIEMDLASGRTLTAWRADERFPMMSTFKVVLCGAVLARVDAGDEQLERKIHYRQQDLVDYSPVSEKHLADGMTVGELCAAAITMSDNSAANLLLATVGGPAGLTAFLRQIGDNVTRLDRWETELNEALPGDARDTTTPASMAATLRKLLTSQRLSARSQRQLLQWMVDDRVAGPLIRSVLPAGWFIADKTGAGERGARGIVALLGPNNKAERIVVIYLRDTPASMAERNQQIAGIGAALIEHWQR
The target in a further assay is PSE-1 (Pseudomonas aeruginosa, UniProt Q03170). The description is as above. Particulars: enzyme PSE-1; indirect method. The source says:
(§1) • 1. […] Performing and Interpreting the Test • 1.

The target in another assay is L-1 (Stenotrophomonas maltophilia, UniProt P52700). The description is as above. The conditions noted are these: enzyme L-1; indirect method.
Sequence of L-1 (P52700 34-290): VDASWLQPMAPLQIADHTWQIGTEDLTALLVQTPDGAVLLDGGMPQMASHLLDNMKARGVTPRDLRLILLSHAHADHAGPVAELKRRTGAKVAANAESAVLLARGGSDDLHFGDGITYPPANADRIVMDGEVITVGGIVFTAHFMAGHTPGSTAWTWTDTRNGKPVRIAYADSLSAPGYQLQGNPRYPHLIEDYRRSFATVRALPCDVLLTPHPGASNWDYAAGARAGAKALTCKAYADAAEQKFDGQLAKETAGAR
Excerpt: as §1

The target of the next assay is OXA-5 (Pseudomonas aeruginosa, UniProt Q00982). The assay is described as above. Particulars: enzyme OXA-5; indirect method.
Sequence of OXA-5 (Q00982 20-267): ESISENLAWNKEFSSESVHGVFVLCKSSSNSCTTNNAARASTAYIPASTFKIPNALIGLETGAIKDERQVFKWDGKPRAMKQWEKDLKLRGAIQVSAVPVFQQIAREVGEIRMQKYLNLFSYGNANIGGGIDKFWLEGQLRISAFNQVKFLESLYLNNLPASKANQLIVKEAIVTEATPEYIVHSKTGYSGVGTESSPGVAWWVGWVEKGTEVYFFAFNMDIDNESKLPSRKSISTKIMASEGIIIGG
A further assay has as its target OXA-3 (Pseudomonas aeruginosa, UniProt Q51429). Described as above. Particulars: enzyme OXA-3; indirect method.
For another assay, the system named is E. coli V1104. Put plainly: Spectrophotometric hydrolysis assay of β-lactamase released by permeabilizing agent, nitrocefin as substrate. How it is done: H., et al., A.A.C. 1:283-288 (1972). […] The nitrocefin was prewarmed to 37° C.
The experiment in Example 1 was repeated using E. coli V1104 to evaluate a variety of permeabilizing agents. Nitrocefan was the hydrolysis substrate.

A further assay addresses OXA-2 (Escherichia coli, UniProt P0A1V9). Description: Indirect reagent disk test, antibiotic inactivation. The conditions noted are these: enzyme OXA-2; indirect method.

Sequence of OXA-7 (P35695 21-266): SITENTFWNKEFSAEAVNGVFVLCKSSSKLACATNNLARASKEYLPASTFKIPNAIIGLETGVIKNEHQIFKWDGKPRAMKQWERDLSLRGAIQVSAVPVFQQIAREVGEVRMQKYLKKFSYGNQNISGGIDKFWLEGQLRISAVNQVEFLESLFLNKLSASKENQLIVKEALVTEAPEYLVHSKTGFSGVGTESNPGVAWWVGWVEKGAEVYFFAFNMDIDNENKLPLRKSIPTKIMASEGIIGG
Sequence of OXA-2 (P0A1V9 22-275): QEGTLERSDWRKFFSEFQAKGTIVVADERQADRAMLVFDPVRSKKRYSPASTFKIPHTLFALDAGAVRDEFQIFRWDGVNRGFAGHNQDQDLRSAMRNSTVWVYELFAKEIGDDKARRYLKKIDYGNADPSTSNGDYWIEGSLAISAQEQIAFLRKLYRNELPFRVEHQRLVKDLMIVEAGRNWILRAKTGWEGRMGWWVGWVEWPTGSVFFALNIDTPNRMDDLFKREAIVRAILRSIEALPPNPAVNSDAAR
Sequence of OXA-3 (Q51429 22-275): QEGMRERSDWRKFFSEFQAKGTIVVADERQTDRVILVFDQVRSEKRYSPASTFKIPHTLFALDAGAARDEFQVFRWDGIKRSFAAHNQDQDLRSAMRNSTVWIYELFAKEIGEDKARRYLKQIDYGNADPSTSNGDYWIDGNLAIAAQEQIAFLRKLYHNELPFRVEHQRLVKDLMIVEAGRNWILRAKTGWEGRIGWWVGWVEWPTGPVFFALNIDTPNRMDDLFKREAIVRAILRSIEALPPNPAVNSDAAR
Sequence of PSE-1 (Q03170 18-288): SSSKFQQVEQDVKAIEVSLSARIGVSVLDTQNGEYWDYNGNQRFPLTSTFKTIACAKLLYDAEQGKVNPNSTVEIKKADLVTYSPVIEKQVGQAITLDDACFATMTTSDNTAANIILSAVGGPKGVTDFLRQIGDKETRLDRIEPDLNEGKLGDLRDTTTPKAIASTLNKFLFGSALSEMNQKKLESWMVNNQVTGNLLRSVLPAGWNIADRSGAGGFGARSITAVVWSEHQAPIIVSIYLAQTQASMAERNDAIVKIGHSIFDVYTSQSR
Excerpt for FOX-1: (§2) A solution of equal parts of physiological saline and Tris EDTA (Sigma Chemicals) is made. • 2. A 20 microliter aliquot of the permeabilizing agent solution was placed onto a filter paper disk and allowed to dry. […] The filter paper disk impregnated with the permeabilizing agent was rehydrated with 20 microliters of sterile physiological saline. • 2. Using a cotton swab or loop, a test organism was rubbed onto the rehydrated disk. • 3. A Mueller Hinton Agar plate was inoculated with a 0.5 McFarland of E. coli ATCC 25922. • 4. A cefoxitin disk was placed onto the surface of the agar plate. The rehydrated disk inoculated with the test organism next was placed next to the cefoxitin disk, at a distance of about 0.5-1.0 mm. • 5. The agar plate was incubated at 37° C. for about 16 hours, or overnight. • 6. Distortion of the cefoxitin zone was interpreted as a positive result (i.e., the presence of an antibiotic-inactivating factor was detected), whereas lack of distortion of the cefoxitin zone was interpreted as a negative result.
(§3) The indirect method was performed essentially as described in Example 4, except the antibiotic disks were as indicated. An indentation of a zone of inhibition around the antibiotic dish was interpreted as positive for presence of antibiotic-inactivating factor.
Experimental for OXA-2: as §3
Excerpt for OXA-3: as §2, §3
Experimental for OXA-4: as §3
Experimental for OXA-5: as §3
Experimental for OXA-6: as §3
Excerpt for OXA-7: as §2
An indentation of a zone of inhibition around the antibiotic dish was interpreted as positive for presence of antibiotic-inactivating factor.
Excerpt for SHV-1: as §2, §3

`CC(C)(O/N=C(\C(=O)N[C@@H]1C(=O)N2C(C(=O)[O-])=C(C[n+]3ccccc3)CS[C@H]12)c1csc(N)n1)C(=O)O` [Ceftazidime, ceftazidime]: the “Reagent disk test result (indentation of inhibition zone = antibiotic inactivation)” value with FOX-1, at OXA-7, in the assay on OXA-4, with OXA-6, at SHV-1 and at PSE-1 was “N” in each case. The “Reagent disk test result (indentation of inhibition zone = antibiotic inactivation)” value at L-1, at OXA-5, at OXA-3 and on OXA-2 was “N” each time. Moreover, the “Units of β-lactamase Activity (Nitrocefin as substrate)” value in the assay with E. coli V1104 is recorded as 196.
